This note sets out measurements from ChEMBL document CHEMBL3217454, “Structureactivity relationship studies using peptide arrays: the example of HIV-1 Revintegrase interaction” (Medchemcomm, 2013).

Test [1] addresses Human immunodeficiency virus type 1 integrase (Human immunodeficiency virus 1) (UniProt Q7ZJM1). The test is described as follows: Binding affinity to HIV-1 integrase measured after overnight incubation by chemiluminescence analysis relative to IN 118-128. Also on record: concentration or dose not given beside the values.
In test [2] the test system is Human immunodeficiency virus 1. The test can be described thus: Binding affinity to HLT-tagged HIV-1 Rev measured after overnight incubation by chemiluminescence analysis relative to IN 118-128. Also on record: concentration or dose not given beside the values.

The structures appear in SMILES notation. Square brackets hold non-standard residues; d marks the D form. Peptide text beside a SMILES is read from it. NMeS = CN[C@@H](CO)C(=O)O

Sequence of Human immunodeficiency virus type 1 integrase (Human immunodeficiency virus 1) (Q7ZJM1 as listed by the source): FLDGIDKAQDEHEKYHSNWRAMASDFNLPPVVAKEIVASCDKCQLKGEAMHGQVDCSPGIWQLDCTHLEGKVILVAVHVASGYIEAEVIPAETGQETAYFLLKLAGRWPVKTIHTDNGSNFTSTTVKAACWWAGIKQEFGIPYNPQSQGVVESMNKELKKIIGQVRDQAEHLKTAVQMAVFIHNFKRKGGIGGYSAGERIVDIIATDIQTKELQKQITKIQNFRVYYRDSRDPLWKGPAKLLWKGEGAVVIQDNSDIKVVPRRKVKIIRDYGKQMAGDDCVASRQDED

For `CC(C)[C@H](NC(=O)[C@@H](NC(=O)[C@@H](NC(=O)[C@H](CO)NC(=O)[C@@H](NC(=O)[C@H](Cc1ccccc1)NC(=O)[C@H](CC(N)=O)NC(=O)[C@H](CO)N(C)C(=O)CN)[C@@H](C)O)[C@@H](C)O)[C@@H](C)O)C(=O)N[C@@H](CCCCN)C(=O)N[C@@H](C)C(=O)O` (H-G[NMeS]NFTSTTVKA-OH), the Activity in test [1] amounted to 182%; in test [2], 293%.
